Test results taken from patent US11000065B2, “Aerosol generation and exposure system” (CHARLES R. DREW UNIVERSITY OF MEDICINE AND SCIENCE, priority 2016, dated 2021).

Assay: Electronic cigarette aerosol exposure experiment on mice: plasma concentrations
Conditions: 9 mice; inhalation of aerosol from one electronic cigarette, 4 seconds per puff, one puff every 20 sec, 10 puffs per episode, one episode every 30 min, 4 episodes in 2 hours

CN1CCCC1c1cccnc1 (stereo not shown) [nicotine]
Mouse plasma nicotine concentration (mean±SD): 35.3 ± 20.0 ng/mL
